Data on 19 compounds can be found in paper PMC5111791, “Design of nucleotide-mimetic and non-nucleotide inhibitors of the translation initiation factor eIF4E: Synthesis, structural and functional characterisation” (European Journal of Medicinal Chemistry, 2016).

Series [1] concerns the target T1, eIF4E (Homo sapiens, UniProt P06730). Kind of series: Fluorescence polarisation (FP) assay: displacement of EDA-m^7GDP-ATTO-465 tracer from eIF4E. The following applies: for inhibition at 100 µM: read-out: FP assay Inhibition (%); for FP assay Inhibition (%): at 100 μM, tracer 10 nM, eIF4E 90 nM.
In series [2] the target is T1, eIF4E. The experiment in a line: Radiolabelled capped RNA - eIF4E UV cross-linking competition assay. It counts as binding. Details: Expression and purification of eIF4E followed a modified procedure of that already published; made in house. To be noted: capped RNA 5 nM, eIF4E 1.5 μM; for RNA cross-linking assay Inhibition (%): at 100 μM.
The target in series [3] is rabbit reticulocyte lysate (RRL) system, luciferase synthesis. The experiment in a line: Rabbit reticulocyte lysate in vitro translation assay primed with luciferase RNA. It counts as biochemical. The following applies: luciferase expression.
The subject of series [4] is cap-dependent and HCV IRES-driven translation in rabbit reticulocyte lysate. The experiment in a line: Rabbit reticulocyte lysate primed with bicistronic pRHCVF RNA (cap-dependent Renilla / HCV IRES firefly luciferase). It counts as biochemical. To be noted: relative to 1% DMSO control.
Series [5] deals with HeLa cells. The experiment in a line: ^35S-Met incorporation assay (HeLa). The following applies: HeLa cells, 24 h incubation.
Series [6] has as its system MCF-7 cells. Kind of series: ^35S-Met incorporation assay (MCF-7). To be noted: MCF-7 cells.

A word on the melting point: it is the temperature of the solid-liquid transition. The term inhibition denotes how much of the control response was suppressed. A word on the IC50: it is the concentration needed to halve the response being measured. Lower therefore signals higher potency.

T1 sequence (P06730 whole entry): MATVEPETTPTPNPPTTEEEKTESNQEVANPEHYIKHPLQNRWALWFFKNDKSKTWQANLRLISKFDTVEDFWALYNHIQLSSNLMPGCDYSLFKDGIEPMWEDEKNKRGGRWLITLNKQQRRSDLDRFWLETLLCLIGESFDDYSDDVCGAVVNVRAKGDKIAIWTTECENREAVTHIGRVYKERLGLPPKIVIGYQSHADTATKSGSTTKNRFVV

Turning to `C[n+]1cn([C@@H]2O[C@H](CNc3c(O)c(=O)c3=O)[C@@H](O)[C@H]2O)c2nc(N)[nH]c(=O)c21` [Compound 4a, 5′-Deoxy-5′-(1,2-dioxo-3-hydroxycyclobut-3-en-4-yl)amino-N^7-methyl-guanosine], the melting point is 192 to 194 °C. In addition, the inhibition at 100 µM in series [1] amounted to 14.4 ± 3.2%. Moreover, the “RNA cross-linking assay Inhibition (%)” value in series [2] was “Inactive”.

For `Nc1nc2c(c(=O)[nH]1)[n+](Cc1ccccc1)cn2[C@@H]1O[C@H](CNc2c(O)c(=O)c2=O)[C@@H](O)[C@H]1O` [Compound 4b, N^7-Benzyl-5′-deoxy-5′-(1,2-dioxo-3-hydroxy-cyclobut-3-en-4-yl)amino-guanosine], the melting point lay in the range of 186 to 188 °C. Besides, in series [1], the inhibition at 100 µM was determined as 9.1 ± 5.5%. In series [2], the “RNA cross-linking assay Inhibition (%)” value is “Inactive”.

Turning to `Cc1cccc(C[n+]2cn([C@@H]3O[C@H](CNc4c(O)c(=O)c4=O)[C@@H](O)[C@H]3O)c3nc(N)[nH]c(=O)c32)c1` [Compound 4c, 5′-Deoxy-5′-(1,2-dioxo-3-hydroxycyclobut-3-en-4-yl)amino-N^7-3-methylbenzyl-guano-sine], the melting point is 187 to 190 °C. In series [1], the inhibition at 100 µM is 15.2 ± 4.7%. Further, the “RNA cross-linking assay Inhibition (%)” value in series [2] is “Inactive”.

The compound `COc1cccc(C[n+]2cn([C@@H]3O[C@H](CNc4c(O)c(=O)c4=O)[C@@H](O)[C@H]3O)c3nc(N)[nH]c(=O)c32)c1` [Compound 4d, 5′-Deoxy-5′-(1,2-dioxo-3-hydroxycyclobut-3-en-4-yl)amino-N^7-3-methoxybenzyl-guano-sine] came in with a melting point of 177 to 179 °C. In series [1], the inhibition at 100 µM was found to be 2 ± 6.3%. For the same compound, the “RNA cross-linking assay Inhibition (%)” value in series [2] is “Inactive”.

Turning to `Nc1nc2c(c(=O)[nH]1)[n+](Cc1cccc(C(F)(F)F)c1)cn2[C@@H]1O[C@H](CNc2c(O)c(=O)c2=O)[C@@H](O)[C@H]1O` [Compound 4e, 5′-Deoxy-5′-(1,2-dioxo-3-hydroxycyclobut-3-en-4-yl)amino-N^7-3-(trifluoromethyl)benz-yl-guanosine], the melting point lay in the range of 221 to 224 °C. Moreover, the “FP assay Inhibition (%)” value in series [1] is recorded as “Inactive”. In addition, in series [2], the “RNA cross-linking assay Inhibition (%)” value is “Inactive”.

For `Nc1nc2c(c(=O)[nH]1)[n+](Cc1cccc(Cl)c1)cn2[C@@H]1O[C@H](CNc2c(O)c(=O)c2=O)[C@@H](O)[C@H]1O` [Compound 4f, N^7-3-Chlorobenzyl-5′-deoxy-5′-(1,2-dioxo-3-hydroxycyclobut-3-en-4-yl)aminoguanosine], the melting point was in the range of 193 to 195 °C. In addition, the inhibition at 100 µM in series [1] was 13.2 ± 4.2%. In addition, the “RNA cross-linking assay Inhibition (%)” value in series [2] is “Inactive”.

As for `Nc1nc2c(c(=O)[nH]1)[n+](Cc1ccc(F)cc1)cn2[C@@H]1O[C@H](CNc2c(O)c(=O)c2=O)[C@@H](O)[C@H]1O` [Compound 4g, 5′-Deoxy-5′-(1,2-dioxo-3-hydroxycyclobut-3-en-4-yl)amino-N^7-4-flurobenzyl-guanosine], the inhibition at 100 µM in series [1] is 3.9 ± 5.2%. Further, the “RNA cross-linking assay Inhibition (%)” value in series [2] is recorded as “Inactive”.

`CC(C)c1ccc(C[n+]2cn([C@@H]3O[C@H](CNc4c(O)c(=O)c4=O)[C@@H](O)[C@H]3O)c3nc(N)[nH]c(=O)c32)cc1` [Compound 4h, 5′-Deoxy-5′-(1,2-dioxo-3-hydroxycyclobut-3-en-4-yl)amino-N^7-4-isopropylbenzyl-guanosine] yielded a melting point of 167 to 169 °C. Also, in series [1], the inhibition at 100 µM was found to be 1.8 ± 7.7%. The compound further came in with an inhibition at 100 µM in series [2] of 6.5 ± 7.1%.

On to `CC(C)(C)c1cc(C[n+]2cn([C@@H]3O[C@H](CNc4c(O)c(=O)c4=O)[C@@H](O)[C@H]3O)c3nc(N)[nH]c(=O)c32)cc(C(C)(C)C)c1` [Compound 4i, N^7-3,5-(di-tert-butyl)benzyl-5′-deoxy-5′-(1,2-dioxo-3-hydroxycyclobut-3-en-4-yl)amino-guanosine], for which the “FP assay Inhibition (%)” value in series [1] is “Inactive”. Moreover, the “RNA cross-linking assay Inhibition (%)” value in series [2] was “Inactive”.

With `Nc1nc2c(c(=O)[nH]1)[n+](Cc1ccccc1)cn2[C@@H]1O[C@H](CNS(=O)(=O)C(F)(F)F)[C@@H](O)[C@H]1O` [Compound 7a], the IC50 in series [3] is 65.9 ± 13.6 µM. In series [4], the “Effect on HCV-IRES mediated (cap-independent) firefly luciferase translation” value is on record as “no effect” and the “Effect on cap-dependent Renilla luciferase synthesis” value is “inhibition”. In addition, in series [5], the “^35S-Met incorporation assay IC50 (HeLa)” value is recorded as “Inactive”. Further, in series [6], the “^35S-Met incorporation assay IC50 (MCF-7)” value is listed as “Inactive”. Also, the inhibition at 100 µM in series [1] amounted to 89 ± 1.7%. Besides, in series [2], the inhibition at 100 µM is 42.9 ± 4.8%.

Take `C[n+]1cn([C@@H]2O[C@H](CNC(=O)Cc3nnn[nH]3)[C@@H](O)[C@H]2O)c2nc(N)[nH]c(=O)c21` [Compound 11a]: the inhibition at 100 µM in series [1] is 9.7 ± 2.9%; in series [2], 25.8 ± 2.9%.

As for `CCOc1ccc(-n2c(SCC(=O)O)nnc2-c2cccnc2)cc1` [Compound 12a], the inhibition at 100 µM amounted to 13.6 ± 2.2% in series [1] and 10.2 ± 3.3% in series [2].

As to `Cc1ccc(-n2c(SCC(N)=O)nnc2-c2ccncc2)cc1` [Compound 12b], the inhibition at 100 µM in series [1] was determined as 25.8 ± 5.9%. In series [2], the “RNA cross-linking assay Inhibition (%)” value was “Inactive”.

As to `Cc1ccc(-n2c(SCC(N)=O)nnc2-c2cccnc2)cc1` [Compound 12c], the inhibition at 100 µM in series [1] was found to be 8.5 ± 2.8%. The “RNA cross-linking assay Inhibition (%)” value in series [2] was “Inactive”.

In the case of `Cc1cc2cc(C(c3nnnn3C3CCCC3)N3CCC(C)CC3)c(=O)[nH]c2cc1C` (centres unmarked) [Compound 13], in series [1], the “FP assay Inhibition (%)” value is reported as “Inactive”. Further, in series [2], the “RNA cross-linking assay Inhibition (%)” value is “Inactive”.

Take `N=C1NC(=O)/C(=C/c2ccc(Sc3ccc(Cl)cc3)o2)S1` [Compound 15]: the “FP assay Inhibition (%)” value in series [1] is “Inactive”. Besides, in series [2], the inhibition at 100 µM came to 3.5 ± 3.2%.

Regarding `O=C1CC(c2c(Cl)cccc2Cl)c2c(n3ccsc3nc2=O)N1` (centres unmarked) [Compound 16], the “FP assay Inhibition (%)” value in series [1] is “Inactive”. The same compound yielded an inhibition at 100 µM in series [2] of 33.8 ± 8.1%.

As for `Cn1c[n+]([C@@H]2O[C@H](COP(=O)(O)O)[C@@H](O)[C@H]2O)c2nc(N)[nH]c(=O)c21` [m^7GMP, m^7G monophosphate, reference compound], in series [3], 46.9 ± 3.4 µM corresponded to half-maximal inhibition (IC50). The “^35S-Met incorporation assay IC50 (HeLa)” value in series [5] is “Inactive”. In addition, the “^35S-Met incorporation assay IC50 (MCF-7)” value in series [6] is reported as “Inactive”.

`Cn1c[n+]([C@@H]2O[C@H](COP(=O)([O-])OP(=O)(O)OP(=O)(O)O)[C@@H](O)[C@H]2O)c2nc(N)[nH]c(=O)c21` [m^7GTP, reference compound] returned an IC50 in series [3] of 8.6 ± 1.1 µM.
